Results from patent publication US7786083B2, “Metastin derivatives and use thereof” (Takeda Pharmaceutical Company Limited, priority 2006, dated 2010).
*1 amine or outer side, *2 acyl side, *3 side chain or, on linkers, in order; H or OH if unused. Where a SMILES comes first, the peptide text is derived from it. [ ]: non-standard residue; d: D form. X4 = O=C(CCC(=O)[*:2])[C@H](Cc1ccccc1)N[*:1]; X6 = O=C(COC[C@H](Cc1ccccc1)N[*:1])[*:2]; X9 = O=C(CCC[C@H](Cc1ccccc1)N[*:1])[*:2]; Arg(Me) = CNC(=N)NCCC[C@H](N)C(=O)O; Hyp = O=C(O)[C@@H]1C[C@@H](O)CN1; 2Pal = N[C@@H](Cc1ccccn1)C(=O)O; 3Pal = N[C@@H](Cc1cccnc1)C(=O)O; 4Pal = N[C@@H](Cc1ccncc1)C(=O)O; Cha = N[C@@H](CC1CCCCC1)C(=O)O; Abu = CC[C@H](N)C(=O)O; Dap = NC[C@H](N)C(=O)O; Aib = CC(C)(N)C(=O)O

Test system: metastin receptors
Experiment: Measurement of agonist activity by assaying changes in intracellular calcium ion level (FLIPR, Fluo-4 NW)
Assay type: cell-based, human
Details: specific activity of the EC50 of a test compound based on the EC50 of Metastin (45-54), metastin receptor expression CHO cells
Procedure: 1) Preparation of Human Metastin and Rat Metastin Stable Expression Cell Lines
Human metastin and rat metastin stable expression cell lines were obtained by transfecting the expression plasmid for animal cells into CHO/dhfr^− cells using CellPhect Transfection Kit (manufactured by GE Healthcare). First, 240 μL of Buffer A (attached to CellPhect Transfection Kit) was added to 9.6 μg of plasmid DNA dissolved in 240 μL of distilled water followed by stirring. After the mixture was settled for 10 minutes, 480 μL of Buffer B (attached to CellPhect Transfection Kit) was added to the mixture, which was vigorously stirred to form liposomes containing the DNA. Then, 4×10^5 CHO/dhfr^− cells (obtained from ATCC) were inoculated on a 60 mm Petri dish. After culturing the cells in Ham's F-12 medium (manufactured by Nissui Seiyaku Co., Ltd.) supplemented with 10% fetal bovine serum (manufactured by BIO […], Inc.) at 37° C. for 2 days in 5% carbon dioxide gas, […] of the liposomes were dropwise added to the cells on the Petri dish. After culturing the cells in a CO2 incubator (5% CO2, 37° C.) for 6 hours, the cells were washed twice with serum-free Ham's F-12 medium and 3 mL of 15% glycerol was added to the cells on the Petri dish followed by treatment for 2 minutes. The cells were again washed twice with serum-free Ham's F-12 medium followed by incubation in Ham's F-12 medium supplemented with 10% fetal bovine serum in a CO2 incubator (5% CO2, 37° C.) for 15 hours. The cells were dispersed by trypsin treatment to recover from the Petri dish. The recovered cells were inoculated on a 6-well plate in 1.25×10^4 cells each/well and incubation was initiated in a CO2 incubator (5% CO2, 37° C.) in Dulbecco's modified Eagle medium (DMEM, manufactured by Nissui Seiyaku) containing 10% dialyzed fetal bovine serum (manufactured by JRH BIOSCIENCES, Inc.). The plasmid-transfected CHO transformants grew in the medium but the non-transfected cells gradually died, accordingly the medium was exchanged on Days 1 and 2 after the initiation of incubation to remove the dead cells. Approximately 20 colonies of the CHO transformants that kept growing on Days 8 to 10 after the incubation were isolated. From the cells in these colonies, cells showing high reactivity with the ligand peptide metastin (hereinafter merely referred to as h175 KB19 and h175 KB29 strains) were selected to provide for the following experiment.
Human metastin expression CHO cell line (h175 KB19 strain is described in a separate section) and rat metastin expression CHO cell line (h175 KB29 strain is described in a separate section) were seeded in a 96-well plate (type 3904, manufactured by Corning) at 3×10^4 cells/well, followed by incubation in a CO2 incubator (5% CO2, 37° C.) for 24 hours. For the medium, MEMα medium (nucleic acid-free, manufactured by Nikken Bio Medical Laboratory) supplemented with dialyzed 10% fetal bovine serum (manufactured by Thermo, MultiSer) was used.
3) Loading with Fluo-4 NW in Cells
As an assay buffer, 1× Hanks' balanced salt solution (HBSS, manufactured by GIBCO) supplemented with 0.1% BSA, 20 mM HEPES (pH 7.4, manufactured by GIBCO) and 1 mM Probenecid (manufactured by Molecular Probes) was prepared. The medium in the wells of the cell-seeded plate was removed and 100 μL each of the assay buffer (kept warm at 37° C.) was added to each well. After 10 mL of the assay buffer (the volume for assaying two plates) was charged in one Fluo-4NW dye mix (Component A, Fluo-4 NW calcium assay kit (starter pack), manufactured by Molecular Probes) bottle, the mixture was gently stirred to prepare the Fluo-4 NW loading solution. This loading solution was charged in each well by 50 μl each and reacted in a CO2 incubator (5% CO2, 37° C.) for 30 minutes for loading with Fluo-4 NW into the cells. Subsequently, the cells were settled at room temperature (25° C.) for 15 minutes and then used for assay.
4) Measurement of Agonist Activity […]

| Specific Activity | Structure (SMILES) |
| --- | --- |
| 1.2 | CNC(=N)NCCC[C@H](NC(=O)[C@H](CC(C)C)NC(=O)[C@H](COC)NC(=O)[C@H](Cc1ccccc1)NC(=O)[C@@H](NC(=O)[C@H](CC(N)=O)NC(=O)[C@@H]1C[C@@H](O)CN1C(=O)[C@@H](Cc1ccc(O)cc1)NC(C)=O)[C@@H](C)O)C(=O)N[C@@H](Cc1c[nH]c2ccccc12)C(N)=O [Compound No. 828, des(1)-Ac-[D-Tyr2,Hyp3,Thr5,Ser(Me)7,Arg(Me)9,Trp10]MS10] (Ac-[dY][Hyp]NTFS(Me)L[Arg(Me)]W-NH2) |
| 0.5 | CNC(=N)NCCC[C@H](NC(=O)[C@H](CC(C)C)NC(=O)COC[C@H](Cc1ccccc1)NC(=O)[C@@H](NC(=O)[C@H](CC(N)=O)NC(=O)[C@@H]1C[C@@H](O)CN1C(=O)[C@@H](Cc1ccc(O)cc1)NC(C)=O)[C@@H](C)O)C(=O)N[C@@H](Cc1c[nH]c2ccccc12)C(N)=O [Compound No. 834, des(1)-Ac-[D-Tyr2,Hyp3,Thr5,Phe6Ψ(CH2O)Gly7,Arg(Me)9,Trp10]MS10] (Ac-[dY][Hyp]NT[X6]L[Arg(Me)]W-NH2) |
| 1.2 | CNC(=N)NCCC[C@H](NC(=O)[C@H](CC(C)C)NC(=O)CNC(=O)[C@H](Cc1ccccn1)NC(=O)[C@@H](NC(=O)[C@H](CC(N)=O)NC(=O)[C@@H]1C[C@@H](O)CN1C(=O)[C@@H](Cc1ccc(O)cc1)NC(C)=O)[C@@H](C)O)C(=O)N[C@@H](Cc1c[nH]c2ccccc12)C(N)=O [Compound No. 839, des(1)-Ac-[D-Tyr2,Hyp3,Thr5,Pya(2)6,Arg(Me)9,Trp10]MS10] (Ac-[dY][Hyp]NT[2Pal]GL[Arg(Me)]W-NH2) |
| 1.7 | CNC(=N)NCCC[C@H](NC(=O)[C@H](CC(C)C)NC(=O)[C@@H](NC(=O)[C@H](Cc1ccccc1)NC(=O)[C@@H](NC(=O)[C@H](CC(N)=O)NC(=O)[C@@H]1C[C@@H](O)CN1C(=O)[C@@H](Cc1ccc(O)cc1)NC(C)=O)[C@@H](C)O)C(C)C)C(=O)N[C@@H](Cc1c[nH]c2ccccc12)C(N)=O [Compound No. 847, des(1)-Ac-[D-Tyr2,Hyp3,Thr5,Val7,Arg(Me)9,Trp10]MS10] (Ac-[dY][Hyp]NTFVL[Arg(Me)]W-NH2) |
| 0.9 | CNC(=N)NCCC[C@H](NC(=O)[C@H](CC(C)C)NC(=O)CNC(=O)[C@H](Cc1cccnc1)NC(=O)[C@@H](NC(=O)[C@H](CC(N)=O)NC(=O)[C@@H]1C[C@@H](O)CN1C(=O)[C@@H](Cc1ccc(O)cc1)NC(C)=O)[C@@H](C)O)C(=O)N[C@@H](Cc1c[nH]c2ccccc12)C(N)=O [Compound No. 848, des(1)-Ac-[D-Tyr2,Hyp3,Thr5,Pya(3)6,Arg(Me)9,Trp10]MS10] (Ac-[dY][Hyp]NT[3Pal]GL[Arg(Me)]W-NH2) |
| 0.9 | CNC(=N)NCCC[C@H](NC(=O)[C@H](CC(C)C)NC(=O)CNC(=O)[C@H](Cc1ccncc1)NC(=O)[C@@H](NC(=O)[C@H](CC(N)=O)NC(=O)[C@@H]1C[C@@H](O)CN1C(=O)[C@@H](Cc1ccc(O)cc1)NC(C)=O)[C@@H](C)O)C(=O)N[C@@H](Cc1c[nH]c2ccccc12)C(N)=O [Compound No. 849, des(1)-Ac-[D-Tyr2,Hyp3,Thr5,Pya(4)6,Arg(Me)9,Trp10]MS10] (Ac-[dY][Hyp]NT[4Pal]GL[Arg(Me)]W-NH2) |
| 1.3 | CNC(=N)NCCC[C@H](NC(=O)[C@H](CC(C)C)NC(=O)CCC[C@H](Cc1ccccc1)NC(=O)[C@@H](NC(=O)[C@H](CC(N)=O)NC(=O)[C@@H]1C[C@@H](O)CN1C(=O)[C@@H](Cc1ccc(O)cc1)NC(C)=O)[C@@H](C)O)C(=O)N[C@@H](Cc1c[nH]c2ccccc12)C(N)=O [Compound No. 850, des(1)-Ac-[D-Tyr2,Hyp3,Thr5,Phe6Ψ(CH2CH2)Gly7,Arg(Me)9,Trp10]MS10] (Ac-[dY][Hyp]NT[X9]L[Arg(Me)]W-NH2) |
| 1.1 | CNC(=N)NCCC[C@H](NC(=O)[C@H](CC(C)C)NC(=O)CCC(=O)[C@H](Cc1ccccc1)NC(=O)[C@@H](NC(=O)[C@H](CC(N)=O)NC(=O)[C@@H]1C[C@@H](O)CN1C(=O)[C@@H](Cc1ccc(O)cc1)NC(C)=O)[C@@H](C)O)C(=O)N[C@@H](Cc1c[nH]c2ccccc12)C(N)=O [Compound No. 851, des(1)-Ac-[D-Tyr2,Hyp3,Thr5,Phe6Ψ(COCH2)Gly7,Arg(Me)9,Trp10]MS10] (Ac-[dY][Hyp]NT[X4]L[Arg(Me)]W-NH2) |

The next lines start with the molecule.

| Structure (SMILES) | Specific Activity |
| --- | --- |
| CNC(=N)NCCC[C@H](NC(=O)[C@H](CC(C)C)NC(=O)CNC(=O)[C@H](Cc1ccccc1)NC(=O)[C@@H](NC(=O)[C@H](CC(N)=O)NC(=O)[C@@H]1C[C@@H](O)CN1C(=O)[C@@H](Cc1ccc(O)cc1)NC(C)=O)[C@@H](C)O)C(=O)N[C@@H](Cc1c[nH]c2ccccc12)C(N)=O [Compound No. 796, des(1)-Ac-[D-Tyr2,Hyp3,Thr5,Arg(Me)9,Trp10]MS10] (Ac-[dY][Hyp]NTFGL[Arg(Me)]W-NH2) | 1.2 |
| CNC(=N)NCCC[C@H](NC(=O)[C@H](CC(C)C)NC(=O)C(C)(C)NC(=O)[C@H](Cc1ccccc1)NC(=O)[C@@H](NC(=O)[C@H](CC(N)=O)NC(=O)[C@@H]1C[C@@H](O)CN1C(=O)[C@@H](Cc1ccc(O)cc1)NC(C)=O)[C@@H](C)O)C(=O)N[C@@H](Cc1c[nH]c2ccccc12)C(N)=O [Compound No. 811, des(1)-Ac-[D-Tyr2,Hyp3,Thr5,Aib7,Arg(Me)9,Trp10]MS10] (Ac-[dY][Hyp]NTF[Aib]L[Arg(Me)]W-NH2) | 1.5 |
| CC[C@H](NC(=O)[C@H](Cc1ccccc1)NC(=O)[C@@H](NC(=O)[C@H](CC(N)=O)NC(=O)[C@@H]1C[C@@H](O)CN1C(=O)[C@@H](Cc1ccc(O)cc1)NC(C)=O)[C@@H](C)O)C(=O)N[C@@H](CC(C)C)C(=O)N[C@@H](CCCNC(=N)NC)C(=O)N[C@@H](Cc1c[nH]c2ccccc12)C(N)=O [Compound No. 818, des(1)-Ac-[D-Tyr2,Hyp3,Thr5,Abu7,Arg(Me)9,Trp10]MS10] (Ac-[dY][Hyp]NTF[Abu]L[Arg(Me)]W-NH2) | 1.0 |
| CNC(=N)NCCC[C@H](NC(=O)[C@H](CC(C)C)NC(=O)CNC(=O)[C@H](CC1CCCCC1)NC(=O)[C@@H](NC(=O)[C@H](CC(N)=O)NC(=O)[C@@H]1C[C@@H](O)CN1C(=O)[C@@H](Cc1ccc(O)cc1)NC(C)=O)[C@@H](C)O)C(=O)N[C@@H](Cc1c[nH]c2ccccc12)C(N)=O [Compound No. 822, des(1)-Ac-[D-Tyr2,Hyp3,Thr5,Cha6,Arg(Me)9,Trp10]MS10] (Ac-[dY][Hyp]NT[Cha]GL[Arg(Me)]W-NH2) | 0.3 |
| CNC(=N)NCCC[C@H](NC(=O)[C@H](CC(C)C)NC(=O)[C@H](C)NC(=O)[C@H](CC1CCCCC1)NC(=O)[C@@H](NC(=O)[C@H](CC(N)=O)NC(=O)[C@@H]1C[C@@H](O)CN1C(=O)[C@@H](Cc1ccc(O)cc1)NC(C)=O)[C@@H](C)O)C(=O)N[C@@H](Cc1c[nH]c2ccccc12)C(N)=O [Compound No. 823, des(1)-Ac-[D-Tyr2,Hyp3,Thr5,Cha6,Ala7,Arg(Me)9,Trp10]MS10] (Ac-[dY][Hyp]NT[Cha]AL[Arg(Me)]W-NH2) | 0.5 |
| CNC(=N)NCCC[C@H](NC(=O)[C@H](CC(C)C)NC(=O)[C@H](CN)NC(=O)[C@H](Cc1ccccc1)NC(=O)[C@@H](NC(=O)[C@H](CC(N)=O)NC(=O)[C@@H]1C[C@@H](O)CN1C(=O)[C@@H](Cc1ccc(O)cc1)NC(C)=O)[C@@H](C)O)C(=O)N[C@@H](Cc1c[nH]c2ccccc12)C(N)=O [Compound No. 827, des(1)-Ac-[D-Tyr2,Hyp3,Thr5,Dap7,Arg(Me)9,Trp10]MS10] (Ac-[dY][Hyp]NTF[Dap]L[Arg(Me)]W-NH2) | 1.3 |
